Source: ChEMBL document CHEMBL5550113, “Bioisoteres for carboxylic acids: From ionized isosteres to novel unionized replacements” (Bioorg Med Chem, 2024)
Each block holds one molecule with its values, some of them ahead of it.

Experiments:
[1] = biological target: CDK12/Cyclin K (Homo sapiens, UniProt Q9NYV4); test: Inhibition of 6His-tagged wild type CDK12/cyclin K (unknown origin) infected in insect cells incubated for 1 hr by TR-FRET assay
[2] = Toxicity in po dosed Guinea pig assessed as effective dose; format: organism-based, Cavia porcellus; details: in vivo
[3] = species on record: Cavia porcellus; test: Binding affinity to Guinea pig Leukotriene receptor; details: filed as antagonist

Chain of CDK12/Cyclin K (O75909 whole entry): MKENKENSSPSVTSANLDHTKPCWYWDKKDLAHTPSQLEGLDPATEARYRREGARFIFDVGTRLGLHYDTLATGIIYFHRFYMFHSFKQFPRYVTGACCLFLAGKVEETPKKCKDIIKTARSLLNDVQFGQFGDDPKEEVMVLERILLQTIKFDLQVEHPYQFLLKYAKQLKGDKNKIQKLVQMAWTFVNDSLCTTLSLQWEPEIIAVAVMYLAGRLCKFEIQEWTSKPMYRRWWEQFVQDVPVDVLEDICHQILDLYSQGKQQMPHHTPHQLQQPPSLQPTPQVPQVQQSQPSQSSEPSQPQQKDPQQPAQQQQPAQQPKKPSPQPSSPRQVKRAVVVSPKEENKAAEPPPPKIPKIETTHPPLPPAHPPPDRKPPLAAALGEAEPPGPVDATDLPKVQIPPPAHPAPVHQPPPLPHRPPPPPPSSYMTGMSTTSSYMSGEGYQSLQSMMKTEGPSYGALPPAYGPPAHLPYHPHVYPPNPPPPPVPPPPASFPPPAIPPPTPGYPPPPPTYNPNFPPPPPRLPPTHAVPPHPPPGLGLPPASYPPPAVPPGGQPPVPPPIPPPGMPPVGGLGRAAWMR
Chain of CDK12/Cyclin K (Q9NYV4 whole entry): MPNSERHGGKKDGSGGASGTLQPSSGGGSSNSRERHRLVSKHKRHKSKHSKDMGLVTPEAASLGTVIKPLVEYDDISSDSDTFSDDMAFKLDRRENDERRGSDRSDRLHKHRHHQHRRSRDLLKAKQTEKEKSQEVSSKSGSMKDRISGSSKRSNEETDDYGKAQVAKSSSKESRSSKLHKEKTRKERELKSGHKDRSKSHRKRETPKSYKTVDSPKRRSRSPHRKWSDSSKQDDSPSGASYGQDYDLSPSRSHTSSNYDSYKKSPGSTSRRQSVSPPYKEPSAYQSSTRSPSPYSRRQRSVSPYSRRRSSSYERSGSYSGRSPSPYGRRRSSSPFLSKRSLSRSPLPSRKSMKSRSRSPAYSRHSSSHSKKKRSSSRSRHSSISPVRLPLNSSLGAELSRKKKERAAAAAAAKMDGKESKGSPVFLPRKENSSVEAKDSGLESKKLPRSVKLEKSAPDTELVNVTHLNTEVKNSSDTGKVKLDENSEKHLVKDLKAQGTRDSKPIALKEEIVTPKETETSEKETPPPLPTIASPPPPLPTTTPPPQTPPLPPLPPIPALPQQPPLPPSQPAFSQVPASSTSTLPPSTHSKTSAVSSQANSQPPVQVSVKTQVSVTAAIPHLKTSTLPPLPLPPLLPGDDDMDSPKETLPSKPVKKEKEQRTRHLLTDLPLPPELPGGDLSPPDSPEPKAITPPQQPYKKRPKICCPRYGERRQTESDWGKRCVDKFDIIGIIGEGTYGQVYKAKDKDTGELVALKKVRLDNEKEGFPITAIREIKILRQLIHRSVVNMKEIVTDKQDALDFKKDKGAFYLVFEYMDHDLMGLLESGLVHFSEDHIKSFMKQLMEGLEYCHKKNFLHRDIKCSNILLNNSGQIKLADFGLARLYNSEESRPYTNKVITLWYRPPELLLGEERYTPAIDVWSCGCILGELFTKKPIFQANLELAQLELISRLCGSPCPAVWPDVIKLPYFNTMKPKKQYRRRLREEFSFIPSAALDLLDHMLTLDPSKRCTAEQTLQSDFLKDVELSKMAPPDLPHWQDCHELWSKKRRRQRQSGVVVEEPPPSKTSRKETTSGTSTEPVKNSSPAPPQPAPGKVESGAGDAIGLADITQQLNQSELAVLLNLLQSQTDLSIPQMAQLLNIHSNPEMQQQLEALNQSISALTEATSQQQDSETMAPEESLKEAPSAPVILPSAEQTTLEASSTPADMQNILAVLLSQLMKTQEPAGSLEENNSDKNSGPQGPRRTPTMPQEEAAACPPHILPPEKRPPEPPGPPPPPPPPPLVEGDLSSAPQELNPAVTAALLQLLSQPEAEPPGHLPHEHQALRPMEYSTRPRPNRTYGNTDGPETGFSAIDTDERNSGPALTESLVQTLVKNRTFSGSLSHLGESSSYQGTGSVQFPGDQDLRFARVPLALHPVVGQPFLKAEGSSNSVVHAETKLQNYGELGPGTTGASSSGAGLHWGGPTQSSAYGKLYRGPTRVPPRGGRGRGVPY

Compound: COc1cc(C(=O)NS(=O)(=O)c2ccccc2C)ccc1Cc1cn(C)c2ccc(NC(=O)OC3CCCC3)cc12 [ZAFIRLUKAST]
ED50 [2]: 0.3 mg/kg

Compound: CC[C@H](CO)Nc1nc(NCc2nc3ccc(F)c(F)c3[nH]2)c2ncn(C(C)C)c2n1
EC50 [1]: 41 nM

Compound: CC[C@H](CO)Nc1nc(NCc2ccc(-c3ccncc3)nc2)c2ncn(C(C)C)c2n1
EC50 [1]: 28 nM

Compound: CC[C@H](CO)Nc1nc(NCc2ccn(-c3cccc(Cl)c3)n2)c2ncn(C(C)C)c2n1
EC50 [1]: 44 nM

Compound: CC[C@H](CO)Nc1nc(NCc2ccc(-c3ccc(C)s3)cc2)c2ncn(C(C)C)c2n1
EC50 [1]: 15 nM

Compound: CC[C@H](CO)Nc1nc(NCc2ccc(-c3ccccn3)c(F)c2)c2ncn(C(C)C)c2n1
EC50 [1]: 78 nM

Compound: CC[C@H](CO)Nc1nc(NCc2ccc(-c3ccncc3)cc2)c2ncn(C(C)C)c2n1
EC50 [1]: 36 nM

Compound: CC[C@H](CO)Nc1nc(NCc2ccc(-c3ccccn3)c(=O)[nH]2)c2ncn(C(C)C)c2n1
EC50 [1]: 21 nM

Compound: COc1cc(C(=O)NS(=O)(=O)c2ccccc2)ccc1Cc1cn(C)c2ccc(NC(=O)OC3CCCC3)cc12
ED50 [2]: 2.5 mg/kg
pKb [3]: 9.69

The next lines start with the values.

EC50 [1]: 246 nM
Compound: CC[C@H](CO)Nc1nc(NCCCc2ccnn2C)c2ncn(C(C)C)c2n1

EC50 [1]: 21 nM
Compound: CC[C@H](CO)Nc1nc(NCCCc2ccc(Cl)c(Cl)c2)c2ncn(C(C)C)c2n1

EC50 [1]: 57 nM
Compound: CC[C@H](CO)Nc1nc(NCCCc2ccccc2)c2ncn(C(C)C)c2n1

EC50 [1]: 18 nM
Compound: CC[C@H](CO)Nc1nc(NCCCc2ccc(C)c(C)c2)c2ncn(C(C)C)c2n1

EC50 [1]: 46 nM
Compound: CC[C@H](CO)Nc1nc(NCCCc2cccc(F)c2)c2ncn(C(C)C)c2n1

EC50 [1]: 35 nM
Compound: CC[C@H](CO)Nc1nc(NCCCc2cccc(C)c2)c2ncn(C(C)C)c2n1

EC50 [1]: 603 nM
Compound: CC[C@H](CO)Nc1nc(NCCCc2ccco2)c2ncn(C(C)C)c2n1

EC50 [1]: 182 nM
Compound: CC[C@H](CO)Nc1nc(NCCCCCc2cccc3ccccc23)c2ncn(C(C)C)c2n1

EC50 [1]: 60 nM
Compound: CC[C@H](CO)Nc1nc(NCc2ccc3ccccc3c2)c2ncn(C(C)C)c2n1

EC50 [1]: 36 nM
Compound: CC[C@H](CO)Nc1nc(NCCCc2cccc(C)n2)c2ncn(C(C)C)c2n1

EC50 [1]: 17 nM
Compound: CC[C@H](CO)Nc1nc(NCc2ccc(-c3ccccc3)cc2)c2ncn(C(C)C)c2n1
